Data taken from article PMC4556614 (PLoS ONE, 2015).

Key:
OCT2 [1] = molecular target: T1, OCT2 (Homo sapiens, UniProt O15244); assay: Inhibition of OCT2-mediated [3H]MPP+ uptake in HEK-OCT2 cells
OCT2 [2] = molecular target: T1, OCT2; assay: in vitro; settings: for % Inhibition of OCT2-dependent MF uptake at 200 µM (mean ± SEM) / IC50 / % Inhibition of OCT2-dependent MF uptake at 20 µM (mean ± SEM): human, pH 7.3
[3] = ref 16 (Regenthal et al.), cited from earlier work; for Cmax,u: Cmax of unbound drug in humans; for Cmax: maximum steady-state plasma concentration in humans
[4] = cited from earlier work
OCT2 [5] = system: OCT2; parameters: method as in earlier work; settings: drug 20 μM; HEK 293 cells overexpressing OCT2; ref 7 (Kido et al.); cited from earlier work
[6] = coadministration with pantoprazole
[7] = test drug 20 µM, MPP+ 50 μM, 3 min, net uptake HEK-OCT2 minus HEK-VC
[8] = test drug 200 µM, MPP+ 50 μM, 3 min, net uptake HEK-OCT2 minus HEK-VC

T1 sequence (O15244 whole entry): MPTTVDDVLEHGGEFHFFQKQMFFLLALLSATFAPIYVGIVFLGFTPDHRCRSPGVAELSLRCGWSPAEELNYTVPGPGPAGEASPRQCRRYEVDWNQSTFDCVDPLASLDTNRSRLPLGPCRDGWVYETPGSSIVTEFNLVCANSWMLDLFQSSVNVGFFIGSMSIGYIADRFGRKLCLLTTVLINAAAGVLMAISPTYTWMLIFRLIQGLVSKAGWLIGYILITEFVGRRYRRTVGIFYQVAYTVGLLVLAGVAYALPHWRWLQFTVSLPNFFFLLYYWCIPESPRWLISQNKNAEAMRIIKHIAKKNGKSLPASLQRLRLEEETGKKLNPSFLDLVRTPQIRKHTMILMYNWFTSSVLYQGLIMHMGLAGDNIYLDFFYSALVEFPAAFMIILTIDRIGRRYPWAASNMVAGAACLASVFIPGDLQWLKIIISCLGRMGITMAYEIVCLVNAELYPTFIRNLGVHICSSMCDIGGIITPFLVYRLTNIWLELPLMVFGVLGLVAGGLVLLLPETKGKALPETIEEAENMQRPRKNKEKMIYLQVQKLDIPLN

SMILES | % Inhibition of OCT2-dependent MPP+ uptake at 200 µM (mean ± SEM) (OCT2 [1]; human, pH 7.3) | % Inhibition of OCT2-dependent MF uptake at 200 µM (mean ± SEM) (OCT2 [2]) | IC50 (OCT2 [2]) | Cmax,u [3] | Cmax [3] | AUC for metformin greater following coadministration [4, 6] | Cmax for metformin greater following coadministration [4, 6] | % Inhibition of OCT2-dependent MPP+ uptake at 20 µM (mean ± SEM) (OCT2 [1]; [7]) | % Inhibition of OCT2-dependent MPP+ uptake at 200 µM (mean ± SEM) (OCT2 [1]; [8]) | % Inhibition of OCT2-dependent MF uptake at 20 µM (mean ± SEM) (OCT2 [2]) | IC50 values, OCT2-mediated metformin transport (in words) (OCT2 [2]; potent inhibitors, confirmed previous findings [19]-[21]) | Effect on steady-state pharmacokinetics of either agent ([4]; co-administration of sitagliptin and metformin, patients with type 2 diabetes) | Cmax,u / IC50 (OCT2 [2]) | Inhibition of OCT2-mediated ASP+ uptake (OCT2 [5]) | % Inhibition of OCT2-dependent MPP+ uptake at 20 µM (mean ± SEM) (OCT2 [1]; test drug 20 µM, MPP+ 50 μM, 3 min, net uptake HEK-OCT2 minus HEK-VC, listed as trimipramine) | Effect on metformin renal clearance and steady-state pharmacokinetics ([4]; trospium chloride coadministration, healthy volunteers) | % Inhibition of OCT2-dependent MPP+ uptake at 20 µM (mean ± SEM) (OCT2 [1]; human, pH 7.3)
COc1ccnc(C[S+]([O-])c2nc3ccc(OC(F)F)cc3[nH]2)c1OC (stereo not shown) [Pantoprazole] | 101.7 ± 4.4 | 98.9 ± 0.6 | 560 nM | 230 nM | 11400 nM | 15% | 15% |  |  |  |  |  |  |  |  |  | 
N[C@@H](CC(=O)N1CCn2c(nnc2C(F)(F)F)C1)Cc1cc(F)c(F)cc1F [Sitagliptin] |  | 97.5 ± 0.1 | 7410 nM | 1500 nM | 2300 nM |  |  | -8.2 ± 7.8% | 22.7 ± 6.0% | 85.9 ± 1.1 | low micromolar range | did not meaningfully alter |  |  |  |  | 
CC(=O)S[C@@H]1CC2=CC(=O)CC[C@]2(C)[C@H]2CC[C@@]3(C)[C@@H](CC[C@@]34CCC(=O)O4)[C@H]12 [Spironolactone] |  | 98.4 ± 1.0 | 1290 nM | 20 nM | 1200 nM |  |  | 33.5 ± 4.7% | 95.0 ± 0.5% |  |  |  | 0.02 |  |  |  | 
CCCc1nc2c(C)cc(-c3nc4ccccc4n3C)cc2n1Cc1ccc(-c2ccccc2C(=O)O)cc1 [Telmisartan] | 93.3 ± 2.8 | 99.2 ± 0.2 |  |  |  |  |  |  |  |  |  |  |  | more than 50% |  |  | 
CC(CN(C)C)CN1c2ccccc2CCc2ccccc21 (stereo not shown) [Trimipramine] |  | 100.0 ± 0.8 | 440 nM | 60 nM | 610 nM |  |  | 51.0 ± 10.2% | 98.6 ± 1.2% |  |  |  |  | more than 50% | more than 50% |  | 
O=C(O[C@H]1C[C@H]2CC[C@@H](C1)[N+]21CCCC1)C(O)(c1ccccc1)c1ccccc1 [Trospium chloride] |  | 98.8 ± 0.4 | 70 nM | 10 nM | 30 nM |  |  | 83.2 ± 2.2% | 96.7 ± 0.7% |  |  |  |  |  |  | did not alter | 
COc1ccc(C(CN(C)C)C2(O)CCCCC2)cc1 (stereo not shown) [Venlafaxine] |  | 72.2 ± 2.5 |  |  |  |  |  | -43.3 ± 13.0% | -54.3 ± 13.1% | 17.6 ± 3.2 |  |  |  |  |  |  | 
Cc1cccc(C)c1NC(=O)c1cc(S(N)(=O)=O)c(Cl)cc1O [Xipamide] |  | 9.4 ± 9.2 |  |  |  |  |  | 10.5 ± 3.7% | 6.6 ± 9.3% | -22.3 ± 9.7 |  |  |  |  |  |  | 
Cc1ccc(-c2nc3ccc(C)cn3c2CC(=O)N(C)C)cc1 [Zolpidem] | 90.7 ± 8.2 | 99.1 ± 0.5 | 150 nM | 50 nM | 650 nM |  |  |  |  |  |  |  |  |  |  |  | 36.5 ± 4.3
